Assay results: ChEMBL document CHEMBL1201862, “PubChem BioAssay data set” (2004)
Several values for one entry are separate records, joined by “and”; a condition that tells them apart may be missing. Equal entries are not always repeated.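 All cell lines were grown in 96-well plates and treated with compound for 48 hours. The concentration for 50% growth inhibition is given as GI50.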 Activity calls are given as the source filed them. Cut-off read from the data, not from the text of the source: active = GI50 up to about 1.1 µM and inactive = higher.

Assays:
Assay in all cases: NCI tumour cell line growth inhibition, 48 h
MOLT-4 = tested on: MOLT-4
M14 = tested on: M14
NCI/ADR-RES = tested on: NCI/ADR-RES
SK-OV-3 = tested on: SK-OV-3
MDA-N = tested on: MDA-N
CAKI-1 = tested on: CAKI-1
TK-10 = tested on: TK-10
OVCAR-3 = tested on: OVCAR-3
UACC-62 = tested on: UACC-62
PC-3 = tested on: PC-3
Hs-578T = tested on: Hs-578T
Malme-3M = tested on: Malme-3M
A498 = tested on: A498
MDA-MB-231 = tested on: MDA-MB-231
SK-MEL-2 = tested on: SK-MEL-2
HCC 2998 = tested on: HCC 2998
CCRF-CEM = tested on: CCRF-CEM
SW-620 = tested on: SW-620
MDA-MB-435 = tested on: MDA-MB-435
COLO 205 = tested on: COLO 205
NCI-H226 = tested on: NCI-H226
SK-MEL-5 = tested on: SK-MEL-5
LOX IMVI = tested on: LOX IMVI
ACHN = tested on: ACHN
T47D = tested on: T47D
A549 = tested on: A549
HCT-116 = tested on: HCT-116
UACC-257 = tested on: UACC-257
MCF7 = tested on: MCF7
IGROV-1 = tested on: IGROV-1
HCT-15 = tested on: HCT-15
SF-539 = tested on: SF-539
OVCAR-4 = tested on: OVCAR-4
EKVX = tested on: EKVX
RXF 393 = tested on: RXF 393
786-0 = tested on: 786-0
SR = tested on: SR
HT-29 = tested on: HT-29
SF-295 = tested on: SF-295
OVCAR-8 = tested on: OVCAR-8
HOP-62 = tested on: HOP-62
NCI-H460 = tested on: NCI-H460
SN12C = tested on: SN12C
OVCAR-5 = tested on: OVCAR-5
NCI-H23 = tested on: NCI-H23
SNB-75 = tested on: SNB-75
HL-60 = tested on: HL-60
KM12 = tested on: KM12
U-251 = tested on: U-251
NCI-H522 = tested on: NCI-H522
HOP-92 = tested on: HOP-92
DU-145 = tested on: DU-145
SF-268 = tested on: SF-268
RPMI-8226 = tested on: RPMI-8226
K562 = tested on: K562
UO-31 = tested on: UO-31

Nc1ncn(C2OC(CO)C(O)C2O)c(=O)n1 (stereo not given)
GI50 (MOLT-4): 735 nM (active) and 1.22 µM (inactive)

COc1ccc(-c2c3c(n(C4OC(CO)C(O)C(O)C4O)c(=S)c2C#N)CCCC3)cc1 (stereo not given)
GI50 (M14): > 100 µM (inactive) | GI50 (NCI/ADR-RES): > 100 µM (inactive) | GI50 (SK-OV-3): > 100 µM (inactive) | GI50 (MDA-N): > 100 µM (inactive) | GI50 (CAKI-1): > 100 µM (inactive) | GI50 (TK-10): > 100 µM (inactive) | GI50 (OVCAR-3): > 100 µM (inactive) | GI50 (UACC-62): > 100 µM (inactive) | GI50 (PC-3): > 100 µM (inactive) | GI50 (Hs-578T): > 100 µM (inactive) | GI50 (Malme-3M): > 100 µM (inactive) | GI50 (A498): > 100 µM (inactive) | GI50 (MDA-MB-231): > 100 µM (inactive) | GI50 (SK-MEL-2): > 100 µM (inactive) | GI50 (HCC 2998): > 100 µM (inactive) | GI50 (CCRF-CEM): 52 µM (inactive) | GI50 (SW-620): > 100 µM (inactive) | GI50 (MDA-MB-435): > 100 µM (inactive) | GI50 (COLO 205): > 100 µM (inactive) | GI50 (NCI-H226): > 100 µM (inactive) | GI50 (SK-MEL-5): 62.2 µM (inactive) | GI50 (LOX IMVI): > 100 µM (inactive) | GI50 (ACHN): > 100 µM (inactive) | GI50 (T47D): 58.5 µM (inactive) | GI50 (A549): > 100 µM (inactive) | GI50 (HCT-116): > 100 µM (inactive) | GI50 (UACC-257): > 100 µM (inactive) | GI50 (MCF7): > 100 µM (inactive) | GI50 (IGROV-1): > 100 µM (inactive) | GI50 (HCT-15): > 100 µM | GI50 (SF-539): > 100 µM (inactive) | GI50 (OVCAR-4): > 100 µM (inactive) | GI50 (EKVX): > 100 µM (inactive) | GI50 (RXF 393): > 100 µM (inactive) | GI50 (MOLT-4): 73.1 µM (inactive) | GI50 (786-0): > 100 µM (inactive) | GI50 (SR): > 100 µM (inactive) | GI50 (HT-29): > 100 µM (inactive) | GI50 (SF-295): > 100 µM (inactive) | GI50 (OVCAR-8): > 100 µM (inactive) | GI50 (HOP-62): > 100 µM (inactive) | GI50 (NCI-H460): > 100 µM (inactive) | GI50 (SN12C): > 100 µM (inactive) | GI50 (OVCAR-5): > 100 µM (inactive) | GI50 (NCI-H23): > 100 µM (inactive) | GI50 (SNB-75): 0.355 µM (active) | GI50 (HL-60): 72.9 µM (inactive) | GI50 (KM12): > 100 µM (inactive)

CC[C@H](CO)Nc1nc(NCc2ccccc2)c2ncn(C(C)C)c2n1 [SELICICLIB]
GI50 (M14): 27.9 µM (inactive) | GI50 (U-251): 53.8 µM (inactive) | GI50 (NCI/ADR-RES): 6.97 µM (inactive) | GI50 (SK-OV-3): 86.3 µM (inactive) | GI50 (CAKI-1): 6.17 µM (inactive) | GI50 (TK-10): 64.1 µM (inactive) | GI50 (OVCAR-3): 11.5 µM (inactive) | GI50 (UACC-62): 8.07 µM (inactive) | GI50 (PC-3): 19.9 µM (inactive) | GI50 (Malme-3M): 19.3 µM (inactive) | GI50 (A498): 48.1 µM (inactive) | GI50 (MDA-MB-231): 39.7 µM (inactive) | GI50 (SK-MEL-2): 17.5 µM (inactive) | GI50 (HCC 2998): 32.2 µM (inactive) | GI50 (CCRF-CEM): > 100 µM (inactive) | GI50 (SW-620): 82.4 µM (inactive) | GI50 (MDA-MB-435): 13.3 µM (inactive) | GI50 (COLO 205): 11.6 µM (inactive) | GI50 (NCI-H226): 19.2 µM (inactive) | GI50 (SK-MEL-5): 10.7 µM (inactive) | GI50 (NCI-H522): 16.4 µM (inactive) | GI50 (HOP-92): 50.9 µM (inactive) | GI50 (LOX IMVI): 14 µM (inactive) | GI50 (DU-145): 16.9 µM (inactive) | GI50 (SF-268): 19.8 µM (inactive) | GI50 (ACHN): 12.8 µM (inactive) | GI50 (T47D): 16.3 µM (inactive) | GI50 (A549): 13.6 µM (inactive) | GI50 (HCT-116): 5.09 µM (inactive) | GI50 (RPMI-8226): 24.2 µM (inactive) | GI50 (MCF7): 13.5 µM (inactive) | GI50 (IGROV-1): 5.78 µM (inactive) | GI50 (K562): 53 µM (inactive) | GI50 (HCT-15): 19.3 µM | GI50 (SF-539): 15.8 µM (inactive) | GI50 (OVCAR-4): 35.2 µM (inactive) | GI50 (EKVX): 19.1 µM (inactive) | GI50 (RXF 393): 4.9 µM (inactive) | GI50 (MOLT-4): 25.1 µM (inactive) | GI50 (786-0): 23.3 µM (inactive) | GI50 (SR): 5.4 µM (inactive) | GI50 (HT-29): 20 µM (inactive) | GI50 (SF-295): 25.5 µM (inactive) | GI50 (HOP-62): 24.6 µM (inactive) | GI50 (NCI-H460): 27.9 µM (inactive) | GI50 (OVCAR-5): 42.8 µM (inactive) | GI50 (NCI-H23): 13.2 µM (inactive) | GI50 (SNB-75): 11.3 µM (inactive) | GI50 (HL-60): 21.7 µM (inactive) | GI50 (KM12): 5.26 µM (inactive) | GI50 (UO-31): 13.6 µM (inactive)
